Assay: Part 2 (MAD): plasma pharmacokinetics after BID oral KAR5585 for 14 days (incl. accumulation ratios and dose proportionality)
[1] = 100 mg (Cohort 2) to 400 mg (Cohort 4), 4-fold increase in dose, fed
[2] = 100 mg KAR5585 BID, fasted, Cohort 1
[3] = 100 mg KAR5585 BID, fasted, Part 2 Cohort 1, mean
[4] = 100 mg KAR5585 BID, fed, Cohort 2
[5] = 100 mg KAR5585 BID, fed, Part 2 Cohort 2, mean
[6] = KAR5585 100 mg BID fasted, Cohort 1, Day 1 AM, geo. mean
[7] = KAR5585 100 mg BID fasted, Cohort 1, Day 1 AM, mean
[8] = KAR5585 100 mg BID fasted, Cohort 1, Day 14/Day 1 accumulation ratio, geo. mean
[9] = KAR5585 100 mg BID fasted, Cohort 1, Day 14/Day 1 accumulation ratio, mean
[10] = KAR5585 100 mg BID fasted, Cohort 1, Day 14, geo. mean
[11] = KAR5585 100 mg BID fasted, Cohort 1, Day 14, mean
[12] = KAR5585 100 mg BID fed, Cohort 2, Day 1 AM, geo. mean
[13] = KAR5585 100 mg BID fed, Cohort 2, Day 1 AM, mean
[14] = KAR5585 100 mg BID fed, Cohort 2, Day 1 PM, geo. mean
[15] = KAR5585 100 mg BID fed, Cohort 2, Day 1 PM, mean
[16] = KAR5585 100 mg BID fed, Cohort 2, Day 7 AM, Day 7/Day 1 accumulation ratio, geo. mean
[17] = KAR5585 100 mg BID fed, Cohort 2, Day 7 AM, Day 7/Day 1 accumulation ratio, mean
[18] = KAR5585 100 mg BID fed, Cohort 2, Day 7 AM, geo. mean
[19] = KAR5585 100 mg BID fed, Cohort 2, Day 7 AM, mean
[20] = KAR5585 100 mg BID fed, Cohort 2, Day 7 PM, Day 7/Day 1 accumulation ratio, geo. mean
[21] = KAR5585 100 mg BID fed, Cohort 2, Day 7 PM, Day 7/Day 1 accumulation ratio, mean
[22] = KAR5585 100 mg BID fed, Cohort 2, Day 7 PM, geo. mean
[23] = KAR5585 100 mg BID fed, Cohort 2, Day 7 PM, mean
[24] = KAR5585 100 mg BID fed, Cohort 2, Day 14 AM, Day 14/Day 1 accumulation ratio, geo. mean
[25] = KAR5585 100 mg BID fed, Cohort 2, Day 14 AM, Day 14/Day 1 accumulation ratio, mean
[26] = KAR5585 100 mg BID fed, Cohort 2, Day 14 AM, geo. mean
[27] = KAR5585 100 mg BID fed, Cohort 2, Day 14 AM, mean
[28] = KAR5585 200 mg BID fed, Cohort 3, Day 1 AM, geo. mean
[29] = KAR5585 200 mg BID fed, Cohort 3, Day 1 AM, mean
[30] = KAR5585 200 mg BID fed, Cohort 3, Day 1 PM, geo. mean

Description: Food effect was to be evaluated in Part 1, Period 2.
Pharmacokinetic data were to be summarized descriptively.

Nc1nc(O[C@H](c2ccc(Cl)cc2-c2ccccc2)C(F)(F)F)cc(N2CCC3(CC2)CN[C@H](C(=O)O)C3)n1 [KAR5417, (S)-8-(2-amino-6-((R)-1-(5-chloro-[1,1T-biphenyl]-2-yl)-2,2,2-trifluoroeth-oxy)pyrimidin-4-yl)-2,8-diazaspiro[4.5]decane-3-carboxylic acid]
fold increase in mean AUC0-12, Day 1 [1]: 7.0 fold
fold increase in mean AUC0-12, Day 14 [1]: 4.6 fold
fold increase in mean AUC0-24, Day 1 [1]: 6.45 fold
fold increase in mean AUC0-24, Day 14 [1]: 4.45 fold
fold increase in mean Cmax, Day 1 [1]: 6.9 fold
fold increase in mean Cmax, Day 14 [1]: ~4.5 fold
RAUC0-12 (accumulation ratio for AUC0-12), range Day 7/Day 1 and Day 14/Day 1 (100 mg KAR5585 BID): 2.19-2.57
half-life, Day 14 (100 mg KAR5585 BID, fasted): 18.8 h
peak mean concentration of KAR5417 relative to KAR5585, Day 1 [2]: approximately 7.25 fold
peak mean concentration of KAR5417 relative to KAR5585, Day 14 [2]: ~9.1 fold
time peak plasma concentrations were reached, Day 1 [2]: 2.0 to 6.0 h
AUC0-12, Day 1 [3]: 741 ng·h/mL
AUC0-24, Day 14 [3]: 1650 ng·h/mL
mean apparent elimination half-life, Day 14 (100 mg KAR5585 BID, fed): 19.6 h
Cmax (peak mean concentration), Day 1 [4]: 85.9 ng/mL
Cmax (peak mean concentration), Day 14 [4]: 168 ng/mL
mean Cmax plasma concentrations, range on all dosing days [4]: 85.9 to 168 ng/mL
AUC0-12, Day 1 [5]: 470 ng·h/mL
AUC0-24, Day 14 [5]: 1220 ng·h/mL
RAUC0-12 (accumulation ratio for AUC0-12), range Day 7/Day 1 and Day 14/Day 1 (200 mg KAR5585 BID): 1.09-1.34
mean apparent elimination half-life, Day 14 (200 mg KAR5585 BID, fed): 25.0 h
RAUC0-12 (accumulation ratio for AUC0-12), range Day 7/Day 1 and Day 14/Day 1 (400 mg KAR5585 BID): 1.65-2.38
mean apparent elimination half-life, Day 14 (400 mg KAR5585 BID, fed): 30.6 h
steady-state plasma levels achieved by (BID oral KAR5585 for 14 days): ≤ 7 days
AUC0-12 [6]: 643 ng·h/mL
AUC0-∞ [6]: 769 ng·h/mL
C12 [6]: 19.5 ng/mL
Cmax [6]: 101 ng/mL
Cmax/D [6]: 1.01 (ng/ml)/mg
t1/2 [6]: 3.37 h
AUC0-12 [7]: 741 ng·h/mL
AUC0-∞ [7]: 876 ng·h/mL
C12 [7]: 21.3 ng/mL
Cmax/D [7]: 1.21 (ng/ml)/mg
t1/2 [7]: 3.43 h
RAUC0-12 [8]: 1.64
RCmax [8]: 1.75
RAUC0-12 [9]: 1.83
RCmax [9]: 2.56
AUC0-12 [10]: 1150 ng·h/mL
AUC0-24 [10]: 1490 ng·h/mL
AUC0-24/D [10]: 14.9 (hr*ng/ml)/mg
AUC0-∞ [10]: 1960 ng·h/mL
C12 [10]: 42.0 ng/mL
C24 [10]: 18.1 ng/mL
Cmax [10]: 177 ng/mL
Cmax/D [10]: 1.77 (ng/ml)/mg
t1/2 [10]: 17.6 h
AUC0-12 [11]: 1280 ng·h/mL
AUC0-24 [11]: 1650 ng·h/mL
AUC0-24/D [11]: 16.5 (hr*ng/ml)/mg
AUC0-∞ [11]: 2220 ng·h/mL
C12 [11]: 46.3 ng/mL
Cmax/D [11]: 1.94 (ng/ml)/mg
t1/2 [11]: 18.8 h
AUC0-12 [12]: 428 ng·h/mL
AUC0-∞ [12]: 516 ng·h/mL
C12 [12]: 15.4 ng/mL
Cmax [12]: 79.2 ng/mL
Cmax/D [12]: 0.792 (ng/ml)/mg
t1/2 [12]: 4.16 h
AUC0-12 [13]: 470 ng·h/mL
AUC0-∞ [13]: 564 ng·h/mL
C12 [13]: 17.2 ng/mL
Cmax [13]: 85.9 ng/mL
Cmax/D [13]: 0.859 (ng/ml)/mg
t1/2 [13]: 4.18 h
AUC0-12 [14]: 714 ng·h/mL
AUC0-24/D [14]: 5.78 (hr*ng/ml)/mg
AUC0-∞ [14]: 1090 ng·h/mL
C12 [14]: 39.5 ng/mL
Cmax [14]: 119 ng/mL
Cmax/D [14]: 1.19 (ng/ml)/mg
t1/2 [14]: 6.95 h
AUC0-12 [15]: 748 ng·h/mL
AUC0-24 [15]: 1220 ng·h/mL
AUC0-24/D [15]: 6.09 (hr*ng/ml)/mg
AUC0-∞ [15]: 1140 ng·h/mL
C12 [15]: 43.1 ng/mL
Cmax [15]: 130 ng/mL
Cmax/D [15]: 1.3 (ng/ml)/mg
t1/2 [15]: 7.00 h
RAUC0-12 [16]: 2.45
RCmax [16]: 2.02
RAUC0-12 [17]: 2.57
RCmax [17]: 2.07
AUC0-12 [18]: 1050 ng·h/mL
AUC0-∞ [18]: 1380 ng·h/mL
C12 [18]: 44.3 ng/mL
Cmax/D [18]: 1.60 (ng/ml)/mg
t1/2 [18]: 5.24 h
AUC0-12 [19]: 1080 ng·h/mL
AUC0-∞ [19]: 1410 ng·h/mL
C12 [19]: 45.1 ng/mL
Cmax [19]: 168 ng/mL
Cmax/D [19]: 1.68 (ng/ml)/mg
t1/2 [19]: 5.31 h
RAUC0-12 [20]: 2.04
RCmax [20]: 1.34
RAUC0-12 [21]: 2.19
RCmax [21]: 1.43
AUC0-12 [22]: 875 ng·h/mL
AUC0-24 [22]: 1930 ng·h/mL
AUC0-24/D [22]: 9.64 (hr*ng/ml)/mg
AUC0-∞ [22]: 1700 ng·h/mL
C12 [22]: 61.4 ng/mL
Cmax [22]: 106 ng/mL
Cmax/D [22]: 1.06 (ng/ml)/mg
t1/2 [22]: 7.91 h
AUC0-12 [23]: 902 ng·h/mL
AUC0-24 [23]: 1990 ng·h/mL
AUC0-24/D [23]: 9.93 (hr*ng/ml)/mg
AUC0-∞ [23]: 1730 ng·h/mL
C12 [23]: 62.3 ng/mL
Cmax/D [23]: 1.12 (ng/ml)/mg
t1/2 [23]: 8.10 h
RAUC0-12 [24]: 2.09
RCmax [24]: 1.90
RAUC0-12 [25]: 2.23
RCmax [25]: 1.98
AUC0-12 [26]: 900 ng·h/mL
AUC0-24 [26]: 1220 ng·h/mL
AUC0-∞ [26]: 1780 ng·h/mL
C12 [26]: 35.4 ng/mL
C24 [26]: 19.3 ng/mL
Cmax [26]: 155 ng/mL
Cmax/D [26]: 1.55 (ng/ml)/mg
t1/2 [26]: 19.0 h
AUC0-12 [27]: 943 ng·h/mL
AUC0-24 [27]: 1270 ng·h/mL
AUC0-∞ [27]: 1830 ng·h/mL
C12 [27]: 36.4 ng/mL
C24 [27]: 19.6 ng/mL
Cmax [27]: 168 ng/mL
Cmax/D [27]: 1.68 (ng/ml)/mg
t1/2 [27]: 19.6 h
AUC0-12 [28]: 1620 ng·h/mL
AUC0-∞ [28]: 1980 ng·h/mL
C12 [28]: 56.6 ng/mL
Cmax [28]: 336 ng/mL
Cmax/D [28]: 1.68 (ng/ml)/mg
t1/2 [28]: 4.41 h
AUC0-12 [29]: 1700 ng·h/mL
C12 [29]: 60.7 ng/mL
Cmax [29]: 357 ng/mL
Cmax/D [29]: 1.79 (ng/ml)/mg
t1/2 [29]: 4.49 h
AUC0-12 [30]: 1910 ng·h/mL
AUC0-24 [30]: 3540 ng·h/mL
AUC0-24/D [30]: 8.85 (hr*ng/ml)/mg
AUC0-∞ [30]: 2640 ng·h/mL
C12 [30]: 102 ng/mL
Cmax [30]: 307 ng/mL
Cmax/D [30]: 1.54 (ng/ml)/mg
